The target of assay [1] is T1, COX-1 (Homo sapiens, UniProt P23219). Description: Human whole blood assay, COX-1 (clotting-induced TxB2 production). Type of assay: cell-based. The arrangement: endogenous in cells; host or cells: platelets in fresh human whole blood without anticoagulant. To be noted: clotting-induced TxB2, 1 hour at 37° C., read-out: COX-1 (IC50 μM) HWB. As for the experimental part: Human whole blood provides a protein and cell-rich milieu appropriate for the study of biochemical efficacy of anti-inflammatory compounds such as selective COX-2 inhibitors. […] This is consistent with the observation that COX-2 inhibitors have no effect on PGE2 production in normal blood. These inhibitors are active only after incubation of human whole blood with LPS, which induces COX-2. This assay can be used to evaluate the inhibitory effect of selective COX-2 inhibitors on PGE2 production. As well, platelets in whole blood contain a large amount of the COX-1 enzyme. Immediately following blood clotting, platelets are activated through a thrombin-mediated mechanism. This reaction results in the production of thromboxane B2 (TxB2) via activation of COX-1. Thus, the effect of test compounds on TxB2 levels following blood clotting can be examined and used as an index for COX-1 activity. Therefore, the degree of selectivity by the test compound can be determined by measuring the levels of PGE2 after LPS induction (COX-2) and TxB2 following blood clotting (COX-1) in the same assay.
B. COX-1 (Clotting-induced TxB2 production)
Fresh blood is collected into vacutainers containing no anticoagulants. Aliquots of 500 μL are immediately transferred to siliconized microcentrifuge tubes preloaded with 2 μL of either DMSO or a test compound at final concentrations varying from 10 nM to 30 μM. The tubes are vortexed and incubated at 37° C. for 1 hour to allow blood to clot. At the end of incubation, serum is obtained by centrifugation (12,000×g for 5 min.). A 100 μL aliquot of serum is mixed with 400 μL of methanol for protein precipitation. The supernatant is obtained and is assayed for TxB2 using a enzyme immunoassay kit (Cayman, #519031) according to the manufacturer's instruction.

Assay [2] deals with T1, COX-1. Description: Assay of COX-1 activity from U937 cell microsomes. More on the design: endogenous in cells; host or cells: U937 cells, 100,000 x g microsomal pellet. To be noted: PGE2, read-out: COX-1 (IC50 μM) U-937. Type of assay: biochemical. How it is done: Assay of COX-1 Activity from U937 cell microsomes
U937 cells are pelleted by centrifugation at 500×g for 5 min and washed once with phosphate-buffered saline and repelleted. Cells are resuspended in homogenization buffer consisting of 0.1M Tris-HCl, pH 7.4, 10 mM EDTA, 2 μg/ml leupeptin, 2 μg/ml soybean trypsin inhibitor, 2 μg/ml aprotinin and 1 mM phenyl methyl sulfonyl fluoride. The cell suspension is sonicated 4 times for 10 sec and is centrifuged at 10,000×g for 10 min at 4° C. The supernatant is centrifuged at 100,000×g for 1 hr at 4° C. The 100,000×g microsomal pellet is resuspended in 0.1M Tris-HCl, pH 7.4, 10 mM EDTA to approximately 7 mg protein/ml and stored at −80° C.
Microsomal preparations are thawed immediately prior to use, subjected to a brief sonication, and then diluted to a protein concentration of 125 μg/ml in 0.1 M Tris-HCl buffer, pH 7.4 containing 10 mM EDTA, 0.5 mM phenol, 1 mM reduced glutathione and 1 μM hematin. Assays are performed in duplicate in a final volume of 250 μl. Initially, 5 μl of DMSO vehicle or drug in DMSO are added to 20 μl of 0.1M Tris-HCl buffer, pH 7.4 containing 10 mM EDTA in wells of a 96-deepwell polypropylene titre plate. 200 μl of the microsomal preparation are then added and pre-incubated for 15 min at room temperature before addition of 25 μl of […] arachidonic acid in 0.1M Tris-HCl and 10 mM EDTA, pH 7.4. Samples are incubated for 40 min at room temperature and the reaction is stopped by the addition of 25 μl of 1N HCl. Samples are neutralized with 25 μl of 1N NaOH prior to quantitation of PGE2 content by radioimmunoassay (Dupont-NEN or Amersham assay kits). Cyclooxygenase activity is defined as the difference between PGE2 levels in samples incubated in the presence of arachidonic acid and ethanol vehicle.
Compounds of the present invention are inhibitors of cyclooxygenase-2 and are thereby useful in the treatment of cyclooxygenase-2 mediated diseases as enumerated above. The activities of the compounds against cyclooxygenase may be seen in the representative results shown below. In the assay, inhibition is determined by measuring the amount of prostaglandin E2 (PGE2) synthesized in the presence of arachidonic acid, cyclooxygenase-1 or cyclooxygenase-2 and a putative inhibitor. The IC50 values represent the concentration of putative inhibitor required to return PGE2 synthesis to 50% of that obtained as compared to the uninhibited control.

What is called IC50 is the concentration that gives 50% inhibition.

T1 sequence (P23219 24-599): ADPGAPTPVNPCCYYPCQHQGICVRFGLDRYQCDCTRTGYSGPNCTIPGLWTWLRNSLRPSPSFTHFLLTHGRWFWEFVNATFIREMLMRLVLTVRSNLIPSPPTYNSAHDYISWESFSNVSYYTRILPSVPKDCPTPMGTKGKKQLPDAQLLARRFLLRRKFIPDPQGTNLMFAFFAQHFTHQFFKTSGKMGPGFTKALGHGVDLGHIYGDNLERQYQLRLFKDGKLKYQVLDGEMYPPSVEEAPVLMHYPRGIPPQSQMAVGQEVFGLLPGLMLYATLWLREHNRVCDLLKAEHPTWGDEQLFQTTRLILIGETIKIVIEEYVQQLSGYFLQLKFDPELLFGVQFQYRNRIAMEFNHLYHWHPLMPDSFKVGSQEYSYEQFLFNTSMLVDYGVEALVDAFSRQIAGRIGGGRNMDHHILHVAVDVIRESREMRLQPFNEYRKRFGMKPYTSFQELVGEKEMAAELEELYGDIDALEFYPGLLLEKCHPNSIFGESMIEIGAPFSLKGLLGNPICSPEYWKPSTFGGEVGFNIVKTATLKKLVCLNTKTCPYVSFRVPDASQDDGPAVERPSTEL

As for `CS(=O)(=O)c1ccc(-c2ccoc(=O)c2-c2ccccc2)cc1` [Example 1, 4-(4-Methylsulfonyl)phenyl-3-phenyl-pyran-2-one], the IC50 is 13 µM on COX-1 [1] and more than 10 µM at COX-1 [2]. On the same counts, the results for `Cc1cc(-c2ccc(S(C)(=O)=O)cc2)c(-c2ccc(F)cc2)c(=O)o1` [Example 2, 3-(4-Fluorophenyl)-6-methyl-4-(4-methylsulfonyl)phenyl-pyran-2-one] are 2 µM and 0.3 to 1 µM.

On to `Cc1cc(-c2ccc(S(C)(=O)=O)cc2)c(-c2cccc(F)c2)c(=O)o1` [Example 3, 3-(3-Fluorophenyl)-6-methyl-4-(4-methylsulfonyl)phenyl-pyran-2-one], for which the IC50 was 6.9 µM on COX-1 [1] and 3 to 10 µM on COX-1 [2]. On the same counts, the results for `Cc1cc(-c2ccc(S(C)(=O)=O)cc2)c(-c2ccccc2)c(=O)o1` [Example 4, 6-Methyl-4-(4-methylsulfonyl)phenyl-3-phenyl-pyran-2-one] are 6.3 µM and 1 µM. For the compound `CS(=O)(=O)c1ccc(-c2cc(C(F)F)oc(=O)c2-c2ccccc2)cc1` [Example 5, 6-Difluoromethyl-4-(4-methylsulfonyl)phenyl-3-phenyl-pyran-2-one], the IC50 at COX-1 [2] was in the range of 0.3 to 1 µM. Regarding `CS(=O)(=O)c1ccc(-c2cc(CF)oc(=O)c2-c2ccccc2)cc1` [Example 6, 6-Fluoromethyl-4-(4-methylsulfonyl)phenyl-3-phenyl-pyran-2-one], the IC50 on COX-1 [2] was approximately 1 µM. Turning to `Cc1cc(-c2ccc(S(C)(=O)=O)cc2)c(Sc2ccccc2)c(=O)o1` [Example 7, 6-Methyl-4-(4-(methylsulfonyl)phenyl)-3-phenylthio-pyran-2-one], the IC50 was 16 µM on COX-1 [1] and 1 to 3 µM at COX-1 [2]. `Cc1cc(-c2ccc(S(C)(=O)=O)cc2)c(Oc2ccccc2)c(=O)o1` [Example 8, 6-Methyl-4-(4-(methylsulfonyl)phenyl)-3-phenoxy-pyran-2-one]: the IC50 on COX-1 [1] is 13 µM; at COX-1 [2], 1 to 3 µM. On the same counts, the results for `Cc1cc(-c2ccc(S(C)(=O)=O)cc2)c(-c2cccnc2)c(=O)o1` [Example 9] are 16 µM and 0.3 to 1 µM. With `Cc1cc(-c2ccc(S(C)(=O)=O)cc2)c(SC(C)C)c(=O)o1` [Example 10, 3-Isopropylthio-6-methyl-4-(4-(methylsulfonyl)phenyl)-pyran-2-one], on COX-1 [2], the IC50 was more than 10 µM. Still for that read-out and setting: the figure for `CS(=O)(=O)c1ccc(-c2cc(C(F)(F)F)oc(=O)c2Sc2ccccc2)cc1` [Example 11, 4-(4-(Methylsulfonyl)phenyl)-3-phenylthio-6-trifluoromethyl-pyran-2-one] is 14 µM; for `CC(C)Sc1c(-c2ccc(S(C)(=O)=O)cc2)cc(C(F)(F)F)oc1=O` [Example 12, 3-Isopropylthio-4-(4-(methylsulfonyl)phenyl)-6-trifluoromethyl-pyran-2-one] it is more than 33 µM. Still for that read-out and setting: the figure for `Cc1cc(-c2ccc(S(C)(=O)=O)cc2)c(CCC(C)(C)O)c(=O)o1` [Example 14, 3-(3-Hydroxy-3-methylbutyl)-6-methyl-4-(4-methylsulfonyl)phenyl-pyran-2-one] is more than 10 µM.
